Legend:
[1] = system: DSS induced inflammatory colitis in C57BL/6 mice; experiment: DSS induced inflammatory colitis model in C57BL/6 mice; type: in vivo, mouse; conditions: 10 mg/kg oral once a day, day 0 to day 7; for DAI score: FIG. 3; for length of the colorectum / weight of the colorectum: FIG. 4; for level of colorectal inflammatory factor IL-10 (ELISA) / level of colorectal inflammatory factor TNF-α (ELISA): FIG. 5
Protocol: The therapeutic effect of compounds prepared in some examples of the present invention on DSS (dextran sulfate sodium) induced inflammatory colitis in C57BL/6 mice (corresponding to ulcerative colitis) was investigated.
• Animal species and strains: C57BL/6 mice • Administration record: No administration history • Gender and weight: Female, about 18-20 g • Breeding party/supplier: Shanghai SLAC Laboratory Animal Co., Ltd • Adaptation period: 7 days • Room: SPF Rooms • Indoor temperature: 20-26° C. • Indoor relative humidity: 40-70% • Lighting: Fluorescent lighting, 12-hour illumination (08:00-20:00) and 12 hour no illumination • Animal feeding: 2-5 mice per cage (same administration group) • Food: Unlimited access to feed (disinfected by irradiation, Shanghai SLAC Laboratory Animal Co., Ltd, China) • Water: Unlimited access to drinking water (tap water purified through ultra-pure water filtration system)
A total of 80 C57BL/6 mice were purchased from Shanghai SLAC Laboratory Animal Co., Ltd, of which 10 were used as backup animals to select animals with suitable weight range included in the groups. All backup animals are not subjected to any administration or modeling procedures and will be euthanized uniformly at the end of the experiment.
70 animals were selected on Day 3 and randomly grouped based on animal weight using BioBook software to ensure that the weight values of each group of animals were similar to reduce bias.
3.1 An appropriate amount of DSS powder was dissolved in high-pressure sterilized drinking water solvent and a 3% DSS solution was prepared.
3.2 Induction of Colitis: On day 3, 70 mice were randomly divided into 7 groups according to Table 7. From day 0 to day 4, mice in groups 2 to 7 drank 3% DSS aqueous solution for 5 days, followed by drank normal water ad libitum (from day 5 to before autopsy). The day of initial administration of DSS drinking water was counted as day 0. DSS aqueous solution was wrapped in opaque dark bags to ensure light avoidance. DSS aqueous solution was replaced every 2 days.
3.3. Dosage regimen: See Table 7.
Changes in body weight, feces, and bleeding of all groups of mice were record daily. Three items were scored according to Table 8 below, and the scores were added together to form the daily disease activity index (DAI) score.
After blood collection, the animals were euthanized by inhaling excessive CO2 and dislocation of cervical vertebra. Then the abdominal cavity was cut open and the colorectum was taken out. After removing the tissue around the colon, the longitudinal length from the ileocecal valve to the anus was measured. Afterwards, the colorectum was cut open and the contents of feces were scored. Finally, the intestinal contents were cleaned, and the entire colon was photographed and weighed.
Commercially available ELISA analysis kits were used to analyze the colorectal inflammation factors TNF-α and IL-10 in each group.
The health status of animals and their comprehensive response to DSS and drugs were observed every day. Any abnormal appearance or behavior other than those related to the development of the disease was recorded in detail in the Pharmalegacy Biological Experimental Observation Form.
The data was calculated as mean±standard error. Statistical analysis was performed using Graphpad Prism and SPSS software. The specific data is presented in the form of charts. When P<0.05, it is considered statistically significant.

chemokine receptor CCR9 = molecular target: T1, chemokine receptor CCR9 (Homo sapiens, UniProt P51686); experiment: CCR9 antagonistic activity, calcium flow (Fluo-4, FlexStation), CCL25 agonist; type: cell-based; conditions: antagonistic mode, CCL25 150 nM; for inhibition at 100 µM: read-out: Inhibition rate (%) (100 μM)
T1 construct: expressed in transfected cells
T1 sequence (P51686 1-369): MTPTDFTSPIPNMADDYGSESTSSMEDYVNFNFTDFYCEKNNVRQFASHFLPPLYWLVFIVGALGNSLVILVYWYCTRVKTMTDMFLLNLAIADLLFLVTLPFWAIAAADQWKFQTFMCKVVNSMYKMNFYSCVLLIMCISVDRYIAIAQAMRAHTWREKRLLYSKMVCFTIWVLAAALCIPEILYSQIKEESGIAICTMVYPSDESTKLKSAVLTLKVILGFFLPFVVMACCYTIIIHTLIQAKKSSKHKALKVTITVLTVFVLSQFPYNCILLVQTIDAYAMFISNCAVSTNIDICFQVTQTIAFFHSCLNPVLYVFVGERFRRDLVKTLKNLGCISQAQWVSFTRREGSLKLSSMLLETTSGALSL
Excerpt: 2.1 Main reagents: DMEM culture medium (GIBCO); dimethyl sulfoxide (Sigma); FLUO-4, AM (Invitrogen) 2.2 Main instrument: Flexstation-3 (Molecular Devices) The test concentration gradient of the compound and replicates were set according to the requirement of testing ICSO. All test substances with 8 concentrations were set, with 3 replicates for each concentration. By establishing a cell line that cotransformed the receptor and G16, the receptor being activated can induce the activation of Gα16 protein, thereby activating phospholipase C (PLC) to produce IP3 and DAG. IP3 can bind to the IP3 receptor on the intracellular endoplasmic reticulum and mitochondria, leading to the release of intracellular calcium. Therefore, measuring changes in intracellular calcium can serve as a method for detecting the activation status of target receptor. Fluo-4/AM is a calcium fluorescent probe indicator used to measure calcium ion, as a non-polar lipophilic compound, under the action of cell lipase after entering cells, the AM group dissociates and releases Fluo-4; since Fluo-4 is a polar molecule, it is not easy to pass through lipid bilayers, allowing it to remain in the cell for a long time. Ultimately, the level of G protein activation can be reflected by measuring the excited fluorescence intensity. […] Cells stably expressing the target receptor/Ga16 were planted on a 96 well plate and cultured overnight. 2. The culture solution was removed from the well planted cells, then 40 μL/well of freshly prepared dye was added. The mixture was incubated at a constant temperature in a 37° C. incubator for 40 minutes. 3. The drug to be tested was diluted with calcium buffer and mixed well. 4. The dye was absorbed and discarded. After washed once with freshly prepared calcium buffer, 50 μL of calcium buffer that dissolved the drug to be tested was added for replacement. 5. The FlexStation II instrument was used for detection. Starting from the 15th second, […] dissolved with known agonist was automatically added by the instrument, and finally the fluorescence value at 525 nm was readed. The following formula was used to calculate the cell response rate (% Response) for each sample under each concentration. […] IC50 value was calculated using GraphPad Prism.

| SMILES | DAI score [1] | length of the colorectum [1] | weight of the colorectum [1] | level of colorectal inflammatory factor IL-10 (ELISA) [1] | level of colorectal inflammatory factor TNF-α (ELISA) [1] | inhibition at 100 µM (chemokine receptor CCR9) [%] | IC50 (chemokine receptor CCR9) [µM] |
| --- | --- | --- | --- | --- | --- | --- | --- |
| CNCc1ccc(-c2cc[nH]n2)c(NS(=O)(=O)c2ccccc2)c1 [IA-55, N-(5-((methylamino)methyl)-2-(1H-pyrazol-3-yl)phenyl)benzenesulfonamide] | significantly reduce | increase | decrease | significantly reduce | significantly reduce | 8 | > 100 |
| CNCc1ccc(-c2nccs2)c(NS(=O)(=O)c2ccccc2)c1 [IA-51, N-(5-((methylamino)methyl)-2-(thiazol-2-yl)phenyl)benzenesulfonamide] | significantly reduce | increase | decrease | significantly reduce | significantly reduce | 3 | > 100 |
| NCc1ccc(NS(=O)(=O)c2ccsc2)c(-c2ccco2)c1 [ID-5] | significantly reduce | increase | decrease | significantly reduce | significantly reduce | 8 | > 100 |
| CNCc1ccc(NS(=O)(=O)c2ccsc2)c(-c2ccco2)c1 [IA-30] | significantly reduce | increase | decrease | significantly reduce | significantly reduce | 3 | > 100 |

— patent US20240262812A1, “N-SUBSTITUTED PHENYLSULFONAMIDE COMPOUND AND USE THEREOF” (Shanghai Leado Pharmatech Co., Ltd., priority 2021, published 2024)
